Reference: patent US8802597B2, “Herbicidal pyrimidines” (E I du Pont de Nemours and Company, priority 2003, dated 2014)

Assays:
Assay type in all cases: in vivo
[1] = test system: catchweed bedstraw (GALAP; Galium aparine); assay: Test I mixtures of compound 9 with metsulfuron-methyl and chlorsulfuron-metsulfuron-methyl (5:1); details: applied alone
Source text: (§1) This test evaluated the effect of mixtures of compound 9 with metsulfuron-methyl and with a 5:1 by weight combination of chlorsulfuron and metsulfuron-methyl on several plant species. Seeds of test plants consisting of wheat (TRZAW; Triticum aestivum), wild buckwheat, (POLCO; Polygonum convolvulus), redroot pigweed (AMARE; Amaranthus retroflexus), wild mustard (SINAR; Sinapis arvensis), catchweed bedstraw (GALAP; Galium aparine), Russian thistle (SASKR; Salsola kali), common chickweed (STEME; Stellaria media), kochia (KCHSC; Kochia scoparia), and lambsquarters (CHEAL; Chenopodium album) were planted into a blend of loam soil and sand. Plants were grown in a greenhouse using supplemental lighting to maintain a photoperiod of about 14 hours; daytime and nighttime temperatures were about 23° C. and 16° C., respectively. Balanced fertilizer was applied through the watering system. The plants were grown for 10 to 23 days so that at time of treatment the plants ranged from 2- to 8-leaf stage. Treatments consisted of Compound 9, metsulfuron-methyl, and chlorsulfuron-metsulfuron-methyl (5:1) alone and in combination. The treatments were formulated in a non-phytotoxic solvent mixture which included a surfactant and applied as a foliage spray using a volume of 280-458 L/ha. Each treatment was replicated three times. […] Treated plants and controls were maintained in the greenhouse and watered as needed with care to not wet the foliage for the first 24 hours after treatment. The effects on the plants approximately 17 days after treatment were visually compared to untreated controls. Plant response ratings were calculated as the means of the three replicates, based on a scale of 0 to 100 where 0 is no effect and 100 is complete control. Colby's Equation was used to determine the herbicidal effects expected from the mixtures.

[2] = test system: kochia (KCHSC; Kochia scoparia); assay: as above; details: applied alone
Source text: as §1

[3] = test system: wild buckwheat (POLCO; Polygonum convolvulus); assay: as above; details: applied alone
Source text: as §1

[4] = test system: wheat (TRZAW; Triticum aestivum); assay: as above; details: applied alone
Source text: as §1

[5] = test system: common chickweed (STEME; Stellaria media); assay: as above; details: applied alone
Source text: as §1

[6] = test system: purple redstem (AMMCO; Ammannia coccinea); assay: Test J mixtures of compound 58 with azimsulfuron, flooded paddy; details: 21 days, scale 0-100
Source text: (§2) This test evaluated the effect of mixtures of compound 58 with azimsulfuron on several plant species. Three plastic pots (ca. 16-cm diameter) per rate were partially filled with sterilized Tama silt loam soil comprising a 35:50:15 ratio of sand, silt and clay and 2.6% organic matter. Separate plantings for each of the three pots were as follows. Seeds from the U.S. of ducksalad (HETLI; Heteranthera limosa), smallflower umbrella sedge (CYPDI; Cyperus difformis) and purple redstem (AMMCO; Ammannia coccinea), were planted into one 16-cm pot for each rate. Seeds from the U.S. of bearded sprangletop (LEFUF; Leptochloa fusca ssp. fascicularis), one stand of 9 or 10 water-seeded rice seedlings (ORYSW; Oryza sativa cv. ‘Japonica-M202’), and one stand of 6 transplanted rice seedlings (ORYSP; Oryza sativa cv. ‘Japonica-M202’) were planted into one 16-cm pot for each rate. Seeds from the U.S. of barnyardgrass (ECHCG; Echinochloa crus-galli), late watergrass (ECOR2; Echinochloa oryzicola), early watergrass (ECHOR; Echinochloa oryzoides) and junglerice (ECHCO; Echinochloa colona) were planted into one 16-cm pot for each rate. Plantings were sequential so that crop and weed species were at the 2.0 to 2.5-leaf stage at time of treatment.
(§3) Potted plants were grown in a greenhouse with day/night temperature settings of 29.5/26.7° C., and supplemental balanced lighting was provided to maintain a 16-hour photoperiod. Test pots were maintained in the greenhouse until test completion.
(§4) At time of treatment, test pots were flooded to 3 cm above the soil surface and then treated by application directly to the paddy water of test compounds formulated in a non-phytotoxic solvent mixture which included a surfactant. The pots were maintained at the 3-cm water depth for the duration of the test. Treatments consisted of compound 58 and azimsulfuron alone and in combination. Effects of treatments on rice and weeds were visually evaluated by comparison to untreated controls after 21 days. Plant response ratings were calculated as the means of the three replicates and are summarized in Table J. The ratings are based on a scale of 0 to 100 where 0 is no effect and 100 is complete control. A dash (-) response means no test result. Colby's Equation was used to determine the herbicidal effects expected from the mixtures.

[7] = test system: early watergrass (ECHOR; Echinochloa oryzoides); assay: as above; details: 21 days, scale 0-100
Source text: as §2, §3, §4

[8] = test system: barnyardgrass (ECHCG; Echinochloa crus-galli); assay: as above; details: 21 days, scale 0-100
Source text: as §2, §3, §4

[9] = test system: bearded sprangletop (LEFUF; Leptochloa fusca ssp. fascicularis); assay: as above; details: 21 days, scale 0-100
Source text: as §2, §3, §4

[10] = test system: smallflower umbrella sedge (CYPDI; Cyperus difformis); assay: as above; details: 21 days, scale 0-100
Source text: as §2, §3, §4

[11] = test system: junglerice (ECHCO; Echinochloa colona); assay: as above; details: 21 days, scale 0-100
Source text: as §2, §3, §4

[12] = test system: water-seeded rice seedlings (ORYSW; Oryza sativa cv. ‘Japonica-M202’); assay: as above; details: 21 days, scale 0-100
Source text: as §2, §3, §4

[13] = test system: late watergrass (ECOR2; Echinochloa oryzicola); assay: as above; details: 21 days, scale 0-100
Source text: as §2, §3, §4

[14] = test system: ducksalad (HETLI; Heteranthera limosa); assay: as above; details: 21 days, scale 0-100
Source text: as §2, §3, §4

[15] = test system: transplanted rice seedlings (ORYSP; Oryza sativa cv. ‘Japonica-M202’); assay: as above; details: 21 days, scale 0-100
Source text: as §2, §3, §4

## COC(=O)c1nc(C2CC2)nc(N)c1Cl [Compound 9, methyl 6-amino-5-chloro-2-cyclopropyl-4-pyrimidinecarboxylate]
[1]; 4 g a.i./ha
  GALAP Obsd. (observed effect): 83
[1]; 8 g a.i./ha
  GALAP Obsd. (observed effect): 87
[2]; 4 g a.i./ha
  KCHSC Obsd. (observed effect): 70
[2]; 8 g a.i./ha
  KCHSC Obsd. (observed effect): 87
[3]; 4 g a.i./ha
  POLCO Obsd. (observed effect): 17
[3]; 8 g a.i./ha
  POLCO Obsd. (observed effect): 27
[4]; Chlorsulfuron-Metsulfuron-Methyl series, 8 g a.i./ha
  TRZAW Obsd. (observed effect): 30
[4]; Chlorsulfuron-Metsulfuron-Methyl series, 16 g a.i./ha
  TRZAW Obsd. (observed effect): 43
[4]; Metsulfuron-Methyl series, 4 g a.i./ha
  TRZAW Obsd. (observed effect): 8
[4]; Metsulfuron-Methyl series, 8 g a.i./ha
  TRZAW Obsd. (observed effect): 12
[5]; 4 g a.i./ha
  STEME Obsd. (observed effect): 47
[5]; 8 g a.i./ha
  STEME Obsd. (observed effect): 55

## COC(=O)c1nc(-c2ccc(Cl)cc2)nc(N)c1Cl [Compound 58, methyl 6-amino-5-chloro-2-(4-chlorophenyl)-4-pyrimidinecarboxylate]
[6]; Cmpd 58 16 g a.i./ha alone
  AMMCO Obsd.: 0
[6]; Cmpd 58 32 g a.i./ha alone
  AMMCO Obsd.: 30
[6]; Cmpd 58 64 g a.i./ha alone
  AMMCO Obsd.: 90
[7]; Compound 58 16 g a.i./ha alone
  ECHOR Obsd.: 0
[7]; Compound 58 32 g a.i./ha alone
  ECHOR Obsd.: 0
[7]; Compound 58 64 g a.i./ha alone
  ECHOR Obsd.: 0
[8]; Compound 58 16 g a.i./ha alone
  ECHCG Obsd.: 0
[8]; Compound 58 32 g a.i./ha alone
  ECHCG Obsd.: 0
[8]; Compound 58 64 g a.i./ha alone
  ECHCG Obsd.: 0
[9]; Compound 58 16 g a.i./ha alone
  LEFUF Obsd.: 0
[9]; Compound 58 32 g a.i./ha alone
  LEFUF Obsd.: 0
[9]; Compound 58 64 g a.i./ha alone
  LEFUF Obsd.: 20
[10]; Cmpd 58 16 g a.i./ha alone
  CYPDI Obsd.: 100
[10]; Cmpd 58 32 g a.i./ha alone
  CYPDI Obsd.: 100
[10]; Cmpd 58 64 g a.i./ha alone
  CYPDI Obsd.: 100
[11]; Compound 58 16 g a.i./ha alone
  ECHCO Obsd.: 0
[11]; Compound 58 32 g a.i./ha alone
  ECHCO Obsd.: 0
[11]; Compound 58 64 g a.i./ha alone
  ECHCO Obsd.: 0
[12]; Cmpd 58 16 g a.i./ha alone
  ORYSW Obsd.: 10
[12]; Cmpd 58 32 g a.i./ha alone
  ORYSW Obsd.: 10
[12]; Cmpd 58 64 g a.i./ha alone
  ORYSW Obsd.: 20
[13]; Compound 58 16 g a.i./ha alone
  ECOR2 Obsd.: 0
[13]; Compound 58 32 g a.i./ha alone
  ECOR2 Obsd.: 0
[13]; Compound 58 64 g a.i./ha alone
  ECOR2 Obsd.: 0
[14]; Cmpd 58 16 g a.i./ha alone
  HETLI Obsd.: 100
[14]; Cmpd 58 32 g a.i./ha alone
  HETLI Obsd.: 100
[14]; Cmpd 58 64 g a.i./ha alone
  HETLI Obsd.: 100
[15]; Cmpd 58 16 g a.i./ha alone
  ORYSP Obsd.: 0
[15]; Cmpd 58 32 g a.i./ha alone
  ORYSP Obsd.: 0
[15]; Cmpd 58 64 g a.i./ha alone
  ORYSP Obsd.: 0
